Reference: the NIST ThermoML archive (doi:10.1021/je300603d)

Experiment: mn = molality of the nth substance listed, in mol/kg
Settings: 101 kPa, Liquid; for electrical conductivity: Alternating current cell with electrodes; for viscosity: Falling or rolling sphere viscometry; for mass density: Vibrating tube method

F[B-](F)(F)F.[Na+] [sodium tetrafluoroborate] + CCCCn1cc[n+](C)c1.F[B-](F)(F)F
Settings | electrical conductivity [S/m] | mass density [kg/m3] | viscosity [mPa·s]
238.15 K, m1 = 0.058 | 0.00083 | – | –
238.15 K, m1 = 0.1159 | 0.00077 | – | –
238.15 K, m1 = 0.1739 | 0.00071 | – | –
258.15 K, m1 = 0.058 | 0.0211 | – | –
258.15 K, m1 = 0.1159 | 0.0201 | – | –
258.15 K, m1 = 0.1739 | 0.0188 | – | –
278.15 K, m1 = 0.0273 | – | 1218 | –
278.15 K, m1 = 0.054 | – | 1219.4 | –
278.15 K, m1 = 0.058 | 0.1075 | 1219.2 | 400.2
278.15 K, m1 = 0.0676 | – | 1220.7 | –
278.15 K, m1 = 0.0903 | – | 1221.3 | –
278.15 K, m1 = 0.1069 | – | 1222.4 | –
278.15 K, m1 = 0.1159 | 0.103 | 1222.8 | 421.4
278.15 K, m1 = 0.1377 | – | 1224.3 | –
278.15 K, m1 = 0.1739 | 0.0986 | 1226.2 | 454.8
288.15 K, m1 = 0.0273 | – | 1210.7 | –
288.15 K, m1 = 0.054 | – | 1212.2 | –
288.15 K, m1 = 0.058 | – | 1212.1 | 204.4
288.15 K, m1 = 0.0676 | – | 1213.4 | –
288.15 K, m1 = 0.0903 | – | 1214 | –
288.15 K, m1 = 0.1069 | – | 1215.1 | –
288.15 K, m1 = 0.1159 | – | 1215.5 | 215.5
288.15 K, m1 = 0.1377 | – | 1217 | –
288.15 K, m1 = 0.1739 | – | 1218.9 | 232.6
298.15 K, m1 = 0.0273 | – | 1203.5 | –
298.15 K, m1 = 0.054 | – | 1204.9 | –
298.15 K, m1 = 0.058 | 0.341 | 1205 | 115.5
298.15 K, m1 = 0.0676 | – | 1206.1 | –
298.15 K, m1 = 0.0903 | – | 1206.8 | –
298.15 K, m1 = 0.1069 | – | 1207.9 | –
298.15 K, m1 = 0.1159 | 0.328 | 1208.3 | 121.4
298.15 K, m1 = 0.1377 | – | 1209.8 | –
298.15 K, m1 = 0.1739 | 0.316 | 1211.6 | 130.4
308.15 K, m1 = 0.0273 | – | 1196.3 | –
308.15 K, m1 = 0.054 | – | 1197.7 | –
308.15 K, m1 = 0.058 | – | 1198 | 70.66
308.15 K, m1 = 0.0676 | – | 1199 | –
308.15 K, m1 = 0.0903 | – | 1199.6 | –
308.15 K, m1 = 0.1069 | – | 1200.7 | –
308.15 K, m1 = 0.1159 | – | 1201.1 | 74.52
308.15 K, m1 = 0.1377 | – | 1202.6 | –
308.15 K, m1 = 0.1739 | – | 1204.4 | 79.37
318.15 K, m1 = 0.0273 | – | 1189.2 | –
318.15 K, m1 = 0.054 | – | 1190.7 | –
318.15 K, m1 = 0.058 | 0.794 | 1190.9 | 46.1
318.15 K, m1 = 0.0676 | – | 1191.9 | –
318.15 K, m1 = 0.0903 | – | 1192.5 | –
318.15 K, m1 = 0.1069 | – | 1193.6 | –
318.15 K, m1 = 0.1159 | 0.769 | 1194 | 48.94
318.15 K, m1 = 0.1377 | – | 1195.5 | –
318.15 K, m1 = 0.1739 | 0.745 | 1197.3 | 51.72
328.15 K, m1 = 0.0273 | – | 1182.2 | –
328.15 K, m1 = 0.054 | – | 1183.6 | –
328.15 K, m1 = 0.058 | – | 1183.9 | 31.69
328.15 K, m1 = 0.0676 | – | 1184.9 | –
328.15 K, m1 = 0.0903 | – | 1185.5 | –
328.15 K, m1 = 0.1069 | – | 1186.6 | –
328.15 K, m1 = 0.1159 | – | 1187 | 33.98
328.15 K, m1 = 0.1377 | – | 1188.4 | –
328.15 K, m1 = 0.1739 | – | 1190.3 | 35.69
338.15 K, m1 = 0.0273 | – | 1175.3 | –
338.15 K, m1 = 0.054 | – | 1177 | –
338.15 K, m1 = 0.058 | 1.5 | 1176.8 | 22.75
338.15 K, m1 = 0.0676 | – | 1177.9 | –
338.15 K, m1 = 0.0903 | – | 1178.6 | –
338.15 K, m1 = 0.1069 | – | 1179.6 | –
338.15 K, m1 = 0.1159 | 1.464 | 1180 | 23.85
338.15 K, m1 = 0.1377 | – | 1181.5 | –
338.15 K, m1 = 0.1739 | 1.425 | 1183.3 | 23.94
348.15 K, m1 = 0.0273 | – | 1168.4 | –
348.15 K, m1 = 0.054 | – | 1169.8 | –
348.15 K, m1 = 0.058 | – | 1169.8 | 16.93
348.15 K, m1 = 0.0676 | – | 1171 | –
348.15 K, m1 = 0.0903 | – | 1171.7 | –
348.15 K, m1 = 0.1069 | – | 1172.7 | –
348.15 K, m1 = 0.1159 | – | 1173.1 | 17.63
348.15 K, m1 = 0.1377 | – | 1174.6 | –
348.15 K, m1 = 0.1739 | – | 1176.4 | 17.97
358.15 K, m1 = 0.0273 | – | 1161.6 | –
358.15 K, m1 = 0.054 | – | 1163 | –
358.15 K, m1 = 0.058 | 2.47 | 1162.7 | 13
358.15 K, m1 = 0.0676 | – | 1164.2 | –
358.15 K, m1 = 0.0903 | – | 1164.8 | –
358.15 K, m1 = 0.1069 | – | 1165.9 | –
358.15 K, m1 = 0.1159 | 2.4 | 1166.3 | 13.53
358.15 K, m1 = 0.1377 | – | 1167.7 | –
358.15 K, m1 = 0.1739 | 2.35 | 1169.6 | 14.01
378.15 K, m1 = 0.058 | 3.66 | – | –
378.15 K, m1 = 0.1159 | 3.57 | – | –
378.15 K, m1 = 0.1739 | 3.5 | – | –
398.15 K, m1 = 0.058 | 5.04 | – | –
398.15 K, m1 = 0.1159 | 4.93 | – | –
398.15 K, m1 = 0.1739 | 4.84 | – | –
418.15 K, m1 = 0.058 | 6.58 | – | –
418.15 K, m1 = 0.1159 | 6.45 | – | –
418.15 K, m1 = 0.1739 | 6.35 | – | –
438.15 K, m1 = 0.058 | 8.24 | – | –
438.15 K, m1 = 0.1159 | 8.11 | – | –
438.15 K, m1 = 0.1739 | 7.98 | – | –
458.15 K, m1 = 0.058 | 10 | – | –
458.15 K, m1 = 0.1159 | 9.85 | – | –
458.15 K, m1 = 0.1739 | 9.7 | – | –
